ChEMBL document CHEMBL3885861, “Open TG-GATES”

Species: Rattus norvegicus
Assay: Open TG-GATES - Regimen: Single
Format: toxicity, organism-based, Sprague-Dawley
Design: regimen Single, gender Male, age 6 weeks
Conditions: in vivo, po, route gavage; for gamma-GTP / A/G / ALP / AST / BUN / CRE / Ca / Cl / DBIL / GLC / K / LDH / Na / PL / RALB / TBIL / TC / TG / ALT / IP / TP: tissue Plasma; for APTT / Bas / Eos / Fbg / Hb / Ht / Lym / MCH / MCHC / MCV / Mono / Neu / PT / Plat / RBC / Ret / WBC: tissue Blood; for KIDNEY_L / KIDNEY_R / KIDNEY_TOTAL: tissue Kidney; for LIVER: tissue Liver
[1] = 15 mg/kg, 3 h, dose level Middle
[2] = 15 mg/kg, 6 h, dose level Middle

Work on `COc1ccc2c(c1)c(CC(=O)O)c(C)n2C(=O)c1ccc(Cl)cc1` [INDOMETHACIN] yielded a gamma-GTP (5 mg/kg, 9 h, dose level High) of 2.6 IU/L, an A/G (5 mg/kg, 9 h, dose level Low) of 1.7 and an ALP (5 mg/kg, 9 h, dose level Low) of 793.6 IU/L. It also gave an AST (5 mg/kg, 9 h, dose level Low) of 72.6 IU/L, a BUN (5 mg/kg, 9 h, dose level Low) of 9.8 mg/dL and a CRE (5 mg/kg, 9 h, dose level Low) of 0.3 mg/dL. It also gave a Ca (5 mg/kg, 9 h, dose level Low) of 10.3 mg/dL, a Cl (5 mg/kg, 9 h, dose level Low) of 104 meq/L and a DBIL (5 mg/kg, 9 h, dose level Low) of 0.076 mg/dL. The GLC (5 mg/kg, 9 h, dose level Low) was 197.6 mg/dL, the K (5 mg/kg, 9 h, dose level Low) was 3.8 meq/L and the LDH (5 mg/kg, 9 h, dose level Low) was 194 IU/L. It also gave a Na (5 mg/kg, 9 h, dose level Low) of 141.4 meq/L, a PL (5 mg/kg, 9 h, dose level Low) of 137 mg/dL and an RALB (5 mg/kg, 9 h, dose level Low) of 3.3 g/dL. For the same compound, the TBIL (5 mg/kg, 9 h, dose level Low) was 0.1 mg/dL, the TC (5 mg/kg, 9 h, dose level Low) was 76.2 mg/dL and the TG (5 mg/kg, 9 h, dose level Low) was 31.8 mg/dL. The gamma-GTP (5 mg/kg, 9 h, dose level Low) was 1.2 IU/L, the TERMINAL_BW (5 mg/kg, 24 h, dose level High) was 211.4 g and the TERMINAL_BW (5 mg/kg, 24 h, dose level Low) was 236.2 g. The APTT (5 mg/kg, 24 h, dose level High) was 17.1 s, the Bas (5 mg/kg, 24 h, dose level High) was 0% and the Eos (5 mg/kg, 24 h, dose level High) was 0.8%. The Fbg (5 mg/kg, 24 h, dose level High) was 232.2 mg/dL, the Hb (5 mg/kg, 24 h, dose level High) was 13 g/dL and the Ht (5 mg/kg, 24 h, dose level High) was 39.2%. For the same compound, the Lym (5 mg/kg, 24 h, dose level High) was 78%, the MCH (5 mg/kg, 24 h, dose level High) was 21.9 pg and the MCHC (5 mg/kg, 24 h, dose level High) was 33.2%. For the same compound, the MCV (5 mg/kg, 24 h, dose level High) was 65.9 fL, the Mono (5 mg/kg, 24 h, dose level High) was 8.2% and the Neu (5 mg/kg, 24 h, dose level High) was 13.4%. It also gave a PT (5 mg/kg, 24 h, dose level High) of 12.2 s, a Plat (5 mg/kg, 24 h, dose level High) of 100.7 x10_4/uL and an RBC (5 mg/kg, 24 h, dose level High) of 595.4 x10_4/ul. For the same compound, the Ret (5 mg/kg, 24 h, dose level High) was 9.8%, the WBC (5 mg/kg, 24 h, dose level High) was 116.2 x10_2/uL and the APTT (5 mg/kg, 24 h, dose level Low) was 18.6 s. For the same compound, the Bas (5 mg/kg, 24 h, dose level Low) was 0.8%, the Fbg (5 mg/kg, 24 h, dose level Low) was 249.8 mg/dL and the Hb (5 mg/kg, 24 h, dose level Low) was 13.2 g/dL. The Ht (5 mg/kg, 24 h, dose level Low) was 38.2%, the Lym (5 mg/kg, 24 h, dose level Low) was 65.8% and the MCH (5 mg/kg, 24 h, dose level Low) was 21.3 pg. For the same compound, the MCHC (5 mg/kg, 24 h, dose level Low) was 34.5%, the MCV (5 mg/kg, 24 h, dose level Low) was 61.7 fL and the Mono (5 mg/kg, 24 h, dose level Low) was 3.2%. For the same compound, the Neu (5 mg/kg, 24 h, dose level Low) was 29.2%, the PT (5 mg/kg, 24 h, dose level Low) was 11.6 s and the Plat (5 mg/kg, 24 h, dose level Low) was 117.7 x10_4/uL. It also gave an RBC (5 mg/kg, 24 h, dose level Low) of 619.8 x10_4/ul, a Ret (5 mg/kg, 24 h, dose level Low) of 7.2% and a WBC (5 mg/kg, 24 h, dose level Low) of 111.3 x10_2/uL. It also gave a KIDNEY_L (5 mg/kg, 24 h, dose level High) of 1 g, a KIDNEY_R (5 mg/kg, 24 h, dose level High) of 1 g and a KIDNEY_TOTAL (5 mg/kg, 24 h, dose level High) of 1.9 g. For the same compound, the KIDNEY_TOTAL (5 mg/kg, 24 h, dose level Low) was 2.1 g, the LIVER (5 mg/kg, 24 h, dose level High) was 9.9 g and the LIVER (5 mg/kg, 24 h, dose level Low) was 11.3 g. It also gave an A/G (5 mg/kg, 24 h, dose level High) of 2, an ALP (5 mg/kg, 24 h, dose level High) of 879 IU/L and an ALT (5 mg/kg, 24 h, dose level High) of 40.4 IU/L. It also gave an AST (5 mg/kg, 24 h, dose level High) of 70.2 IU/L, a BUN (5 mg/kg, 24 h, dose level High) of 15.4 mg/dL and a CRE (5 mg/kg, 24 h, dose level High) of 0.5 mg/dL. The Ca (5 mg/kg, 24 h, dose level High) was 10.4 mg/dL, the Cl (5 mg/kg, 24 h, dose level High) was 106.2 meq/L and the DBIL (5 mg/kg, 24 h, dose level High) was 0.006 mg/dL. For the same compound, the GLC (5 mg/kg, 24 h, dose level High) was 197.2 mg/dL, the IP (5 mg/kg, 24 h, dose level High) was 8.4 mg/dL and the K (5 mg/kg, 24 h, dose level High) was 4.9 meq/L. For the same compound, the LDH (5 mg/kg, 24 h, dose level High) was 146 IU/L, the Na (5 mg/kg, 24 h, dose level High) was 138.8 meq/L and the PL (5 mg/kg, 24 h, dose level High) was 133.4 mg/dL. For the same compound, the RALB (5 mg/kg, 24 h, dose level High) was 3.7 g/dL, the TBIL (5 mg/kg, 24 h, dose level High) was 0.3 mg/dL and the TC (5 mg/kg, 24 h, dose level High) was 77.4 mg/dL. The TG (5 mg/kg, 24 h, dose level High) was 65.2 mg/dL, the TP (5 mg/kg, 24 h, dose level High) was 5.6 g/dL and the gamma-GTP (5 mg/kg, 24 h, dose level High) was 1.4 IU/L. For the same compound, the A/G (5 mg/kg, 24 h, dose level Low) was 1.5, the ALP (5 mg/kg, 24 h, dose level Low) was 830.8 IU/L and the ALT (5 mg/kg, 24 h, dose level Low) was 35.8 IU/L. For the same compound, the AST (5 mg/kg, 24 h, dose level Low) was 70 IU/L, the BUN (5 mg/kg, 24 h, dose level Low) was 13.2 mg/dL and the CRE (5 mg/kg, 24 h, dose level Low) was 0.4 mg/dL. It also gave a Ca (5 mg/kg, 24 h, dose level Low) of 10.7 mg/dL, a Cl (5 mg/kg, 24 h, dose level Low) of 103.2 meq/L and a DBIL (5 mg/kg, 24 h, dose level Low) of 0.06 mg/dL. It also gave a GLC (5 mg/kg, 24 h, dose level Low) of 189.4 mg/dL, an IP (5 mg/kg, 24 h, dose level Low) of 7.6 mg/dL and a K (5 mg/kg, 24 h, dose level Low) of 3.9 meq/L. It also gave an LDH (5 mg/kg, 24 h, dose level Low) of 234.2 IU/L, a Na (5 mg/kg, 24 h, dose level Low) of 141.6 meq/L and a PL (5 mg/kg, 24 h, dose level Low) of 144.6 mg/dL. For the same compound, the RALB (5 mg/kg, 24 h, dose level Low) was 3.3 g/dL, the TBIL (5 mg/kg, 24 h, dose level Low) was 0.1 mg/dL and the TC (5 mg/kg, 24 h, dose level Low) was 73.6 mg/dL. The TG (5 mg/kg, 24 h, dose level Low) was 82.8 mg/dL, the TERMINAL_BW [1] was 223.8 g and the APTT [1] was 19.8 s. The Bas [1] was 0.6%, the Eos [1] was 0.4% and the Fbg [1] was 232.4 mg/dL. The Hb [1] was 13.8 g/dL, the Ht [1] was 37.8% and the Lym [1] was 74.8%. For the same compound, the MCH [1] was 22.8 pg, the MCHC [1] was 36.5% and the MCV [1] was 62.5 fL. For the same compound, the Mono [1] was 3.4%, the Neu [1] was 19.6% and the PT [1] was 11.6 s. It also gave a Plat [1] of 132.9 x10_4/uL, an RBC [1] of 605.2 x10_4/ul and a Ret [1] of 8.5%. It also gave a WBC [1] of 104.8 x10_2/uL, a KIDNEY_L [1] of 0.9 g and a KIDNEY_R [1] of 0.9 g. It also gave a KIDNEY_TOTAL [1] of 1.9 g, an LIVER [1] of 10.3 g and an A/G [1] of 1.5. For the same compound, the ALP [1] was 827 IU/L, the ALT [1] was 36.2 IU/L and the AST [1] was 73.6 IU/L. The BUN [1] was 13 mg/dL, the CRE [1] was 0.4 mg/dL and the Ca [1] was 10.8 mg/dL. It also gave a Cl [1] of 102.6 meq/L, a DBIL [1] of 0.072 mg/dL and a GLC [1] of 209.2 mg/dL. The IP [1] was 9.8 mg/dL, the K [1] was 4.1 meq/L and the LDH [1] was 219.2 IU/L. It also gave a Na [1] of 141.2 meq/L, a PL [1] of 151.6 mg/dL and an RALB [1] of 3.3 g/dL. For the same compound, the TBIL [1] was 0.1 mg/dL, the TC [1] was 84.8 mg/dL and the TG [1] was 64.8 mg/dL. It also gave a TP [1] of 5.5 g/dL, a gamma-GTP [1] of 1 IU/L and a TERMINAL_BW [2] of 220.7 g. The APTT [2] was 19 s, the Bas [2] was 0% and the Eos [2] was 0.6%. It also gave a Fbg [2] of 224 mg/dL.
